Data set [1] concerns the target T1, BAZ2B bromodomain (Homo sapiens, UniProt Q9UIF8).
T1 sequence (Q9UIF8 2060-2164 limits assumed): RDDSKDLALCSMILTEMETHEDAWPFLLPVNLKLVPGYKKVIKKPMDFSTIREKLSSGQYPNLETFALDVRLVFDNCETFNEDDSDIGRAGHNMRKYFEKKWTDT
As to the kind of experiment: AlphaLISA competitive peptide displacement (antipentahis acceptor beads). The settings on record: in words.

A further data set has as its target T2, CREBBP (Homo sapiens, UniProt Q92793).
T2 construct: screened against the bromodomains of BRD2-BD1 and CREBBP
As to the kind of experiment: AlphaScreen fragment screen. It is filed as binding. The note with it: fragment library screen.

Another data set deals with T3, BRD2-BD1 (Homo sapiens, UniProt P25440).
T3 construct: screened against the bromodomains of BRD2-BD1 and CREBBP
As to the kind of experiment: AlphaScreen fragment screen. The format is binding. The settings on record: fragment library screen.

Data set [2] is described as follows: Solubility (qualitative remarks). The format is physicochemical. The settings on record: in words.
Data set [3] addresses T1, BAZ2B bromodomain. In words: Direct ITC titrations. The note with it: in words. The format is binding. On the set-up: successful targeting of the challenging BAZ2B bromodomain; made in house; host or cells: E. coli BL21(DE3).

The results in this text go back to paper PMC3905694, “Targeting Low-Druggability Bromodomains: Fragment Based Screening and Inhibitor Design against the BAZ2B Bromodomain” (Journal of Medicinal Chemistry, 2013).

T3 sequence (P25440 74-180 limits assumed): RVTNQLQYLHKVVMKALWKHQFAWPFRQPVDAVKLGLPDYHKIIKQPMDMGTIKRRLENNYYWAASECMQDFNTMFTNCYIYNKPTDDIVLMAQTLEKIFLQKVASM
T2 sequence (Q92793 1085-1192 limits assumed): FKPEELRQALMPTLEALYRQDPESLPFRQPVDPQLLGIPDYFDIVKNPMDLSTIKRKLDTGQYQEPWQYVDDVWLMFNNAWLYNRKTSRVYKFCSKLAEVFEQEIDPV

As to `NC(=S)N1CCc2[nH]c3ccc(Cl)cc3c2C1` [Compound 39], at BAZ2B bromodomain [1], the “binding to the protein” value was “Neither of these bound”.

In the case of `CC(=O)N1CCc2[nH]c3ccc(Cl)cc3c2C1` [Compound 6], the “hit in fragment screen” value at CREBBP and at BRD2-BD1 was “hits” each time. Also, the solubility entry in data set [2] is given as “poor solubility”.

In the case of `CC(=S)N1CCc2[nH]c3ccc(Cl)cc3c2C1` [Compound 38], the “binding to the protein” value on BAZ2B bromodomain [3] is recorded as “Neither of these bound”. `CNC(=O)N1CCc2[nH]c3ccc(Cl)cc3c2C1` [Compound 40]: the solubility result in data set [2] is on record as “improved solubility”.

For the compound `CNC(=O)c1cc(C)n(C)n1` [Compound 5], the “hit in fragment screen” value on CREBBP and on BRD2-BD1 was “hits” throughout.
